Test results as given in patent publication US20230348376A1 (TEIJIN PHARMA LIMITED, priority 2020, published 2023).

Test system: rat oligodendrocyte progenitor cells
Test: Promotive activity of rat oligodendrocyte progenitor cell differentiation-2 (immunostaining of MBP)
Format: cell-based
Details: vitamin D derivative 2 μM, T3 30 nM, 4 days
Experimental: The promotive activity of oligodendrocyte progenitor cell (OPC) differentiation of the vitamin D derivatives was evaluated by immunostaining of MBP.
Subsequently, oligodendrocyte progenitor cell separation medium was added to the flask, and the mixture was similarly shaken for about 22 hours (37° C., 200 rpm), and the supernatant was collected to prepare oligodendrocyte progenitor cells.

| SMILES | Mean (number of MBP-positive cells/number of Hoechst33342-positive cells) (Test 6) | also measured |
| --- | --- | --- |
| C[C@H](CN1CCC[C@H]1C(C)(C)O)[C@H]1CC[C@H]2/C(=C/C=C3C[C@@H](O)C[C@H](O)C3)CCC[C@]12C [Compound G014, (1R,3R)-5-(2-((1R,3aS,7aR,E)-1-((S)-1-((S)-2-(2-hydroxypropan-2-yl)pyrrolidin-1-yl)propan-2-yl)-7a-methyloctahydro-4H-inden-4-ylidene)ethylidene)cyclohexane-1,3-diol] | 0.44 |  |
| COC(C)(C)[C@H]1CCCN1C[C@@H](C)[C@H]1CC[C@H]2/C(=C/C=C3C[C@@H](O)C[C@H](O)C3)CCC[C@]12C [Compound G015, (1R,3R)-5-(2-((1R,3aS,7aR,E)-1-((S)-1-((R)-2-(2-methoxypropan-2-yl)pyrrolidin-1-yl)propan-2-yl)-7a-methyloctahydro-4H-inden-4-ylidene)ethylidene)cyclohexane-1,3-diol] | 0.52 |  |
| COC(C)(C)[C@@H]1CCCN1C[C@@H](C)[C@H]1CC[C@H]2/C(=C/C=C3C[C@@H](O)C[C@H](O)C3)CCC[C@]12C [Compound G016, (1R,3R)-5-(2-((1R,3aS,7aR,E)-1-((S)-1-((S)-2-(2-methoxypropan-2-yl)pyrrolidin-1-yl)propan-2-yl)-7a-methyloctahydro-4H-inden-4-ylidene)ethylidene)cyclohexane-1,3-diol] |  | Mean (number of MBP-positive cells/number of Hoechst33342-positive cells) (Test 7): 0.37 |
| C[C@H](CCN1CCCC[C@@H]1C)[C@H]1CC[C@H]2/C(=C/C=C3C[C@@H](O)C[C@H](O)C3)CCC[C@]12C [Compound G017, (1R,3R)-5-(2-((1R,3aS,7aR,E)-7a-methyl-1-((R)-4-((S)-2-methylpiperidin-1-yl)butan-2-yl)octahydro-4H-inden-4-ylidene)ethylidene)cyclohexane-1,3-diol] | 0.52 |  |
| C[C@H](CCN1CCCC[C@H]1C)[C@H]1CC[C@H]2/C(=C/C=C3C[C@@H](O)C[C@H](O)C3)CCC[C@]12C [Compound G018, (1R,3R)-5-(2-((1R,3aS,7aR,E)-7a-methyl-1-((R)-4-((R)-2-methylpiperidin-1-yl)butan-2-yl)octahydro-4H-inden-4-ylidene)ethylidene)cyclohexane-1,3-diol] | 0.48 |  |
| C=C1[C@H](O)CC(=C/C=C2\CCC[C@]3(C)[C@@H]([C@H](C)CN4CCCC[C@@H]4C)CC[C@@H]23)C[C@H]1O [Compound H001, (1R,3R)-5-(2-((1R,3aS,7aR,E)-7a-methyl-1-((S)-1-((S)-2-methylpiperidin-1-yl)propan-2-yl)octahydro-4H-inden-4-ylidene)ethylidene)-2-methylenecyclohexane-1,3-diol] |  | Mean (number of MBP-positive cells/number of Hoechst33342-positive cells) (Test 7): 0.48 |
| C=C1[C@H](O)CC(=C/C=C2\CCC[C@]3(C)[C@@H]([C@H](C)CN4CCCC[C@H]4C)CC[C@@H]23)C[C@H]1O [Compound H002, (1R,3R)-5-(2-((1R,3aS,7aR,E)-7a-methyl-1-((S)-1-((R)-2-methylpiperidin-1-yl)propan-2-yl)octahydro-4H-inden-4-ylidene)ethylidene)-2-methylenecyclohexane-1,3-diol] |  | Mean (number of MBP-positive cells/number of Hoechst33342-positive cells) (Test 9): 0.39 |
| C=C1[C@H](O)CC(=C/C=C2\CCC[C@]3(C)[C@@H]([C@H](C)CN4CCCCC4(C)C)CC[C@@H]23)C[C@H]1O [Compound H003, (1R,3R)-5-(2-((1R,3aS,7aR,E)-1-((S)-1-(2,2-dimethylpiperidin-1-yl)propan-2-yl)-7a-methyloctahydro-4H-inden-4-ylidene)ethylidene)-2-methylenecyclohexane-1,3-diol] |  | Mean (number of MBP-positive cells/number of Hoechst33342-positive cells) (Test 9): 0.30 |
